# Data as given in US10434077B2, “Glycolic acid and/or D-lactic acid for the treatment of neurodegenerative diseases” (MAX-PLANCK-GESELLSCHAFT ZUR FOERDERUNG DER WISSENSCHAFTEN …, priority 2014, dated 2019).
# “Also recorded” adds a separate entry of the source. Structures can show the parent of a compound that is named as a salt. Where two headings read alike, the source gives them in different places.
# What was measured:
# [1] = test system: DJ-1 RNAi HeLa cells; experiment: Mitotic rounding pressure of DJ-1 RNAi HeLa cells (AFM microcantilever); format: cell-based, human; conditions: for rescue of the lower pressure phenotype in low or no glucose medium: HeLa kept 2 or more passages in low or no glucose medium before RNAi, measured 1 hour after addition; for rescue of the reduced rounding pressure of mitotic DJ-1 RNAi cells: HeLa, substance added to medium, concentration not given; for rescue of the lower pressure phenotype at 10 mM: RNAi-treated mitotic HeLa cells, 10 mM supplement
# Protocol: (§1) HeLa-Kyoto cells stably expressing histone H2B-EGFP and mCherry-CAAX (clone 2B4), their parental cells, and HeLa-Kyoto expressing mouse DJ-1 transgene were used. Also, mouse embryonic fibroblast (MEF) (Pham et al., 2010) cells were used. Cells were maintained in DMEM supplemented with 10% fetal bovine serum (FBS), 2 mM GlutaMAX, 100 unit/ml penicillin, 100 μg/ml streptomycin, plus additional antibiotics for the transgene (0.5 mg/ml Geneticin for H2B-EGFP and mouse DJ-1 BAC transgene; 0.5 pug/ml puromycin for mCherry-CAAX), at 37° C. in a 5% CO2 environment. The DMEM with high glucose (5 g/1) was used unless specifically mentioned (e.g. FIG. 14). For atomic force microscopy (AFM) measurements of mammalian cells, a CO2-independent medium containing 4 mM sodium bicarbonate and 20 mM HEPES Was used. HeLa Cells Were RNAi-transfected with 160 nM endoribonuclease-digested small interfering RNA (MISSION esiRNA, Sigma) using oligofectamine reagent (Invitrogen). Paraquat (PQ^2+) was added 24 hours after RNAI. Cells were assayed after 48 hours from RNAI.
# (§2) Cell rounding pressure analysis with microcantilevers Cells were grown on a glass-base dish (FD35, World Precision Instruments) with a silicon spacer, which was prepared from μ-Chamber 12 well (ibidi), in the center. Medium was replaced with the CO2-independent medium, then the dish was mounted on the stage of a light microscope (AxioObserver Z1 or Axiovert200, Zeiss) equipped with a 20× objective (Plan Apochromat, NA=0.80). To measure the force of the mitotic cell, a tipless microcantilever (NSC12/CSC37-B with a nominal spring constant of 0.3 N/m, MikroMasch, Estonia) mounted on a glass block of the AFM head (NanoWizard I or II, JPK instruments, Berlin) was used. Setup and calibration were done before every experiment; see Stewart et al (Stewart at al., 2012) for the details of the procedures. In a quick force measurement illustrated in FIG. 5A, the cantilever was set at […] above the glass dish and moved over the mitotically arrested cells to measure the equilibrium force. Measuring the cellular force and pressure through mitosis was done as described (Stewart at al., 2012, Stewart at al., 2011). Otherwise the cell pressure and volume were measured in a constant-height assay, as illustrated in FIG. 5B: the cantilever was first set at 14 μm height and placed over a metaphase cell to record rounding force. The cantilever was then brought down to 8 μm height at 0.1 μmu/sec, to measure peak and equilibrium forces. The maximal cross-section area of the cell was measured from the DIC or mCherry-CAAX image to calculate cell pressure and volume. Calculation of cell pressure and volume, and the contact area to the Cantilever was done as described (Stewart et al., 2012; Stewart et al., 2011). In every experiment, RNAi penetrance was confirmed by lower pressure of MYH9 RNAI-treated cells (Toyoda at al., 2011).
# [2] = test system: mitotic MEF cells (wild type and DJ-1 knock-out); experiment: Mitotic rounding pressure of mouse embryonic fibroblasts (AFM); format: cell-based; conditions: for rescue of the reduced rounding pressure of mitotic DJ-1-deficient MEFs: DJ-1 knock-out MEFs, concentration not given; for rescue of the lower pressure phenotype at 10 mM: mitotic DJ-1 KO MEF cells, measured after 1 hour; for rescue of the lower pressure phenotype at 10 mM / effect on pressure of mitotic WT MEFs (negative effects on cell mechanics): 10 mM supplement; for effect on pressure of mitotic WT MEFs (negative effects on cell mechanics): wild type MEFs
# Protocol: as §1, §2
# [3] = test system: dopaminergic neurons from DJ-1 knock out mice; experiment: In vitro survival of primary dopaminergic (TH+) neurons, DJ-1 knock out; format: cell-based, mouse; conditions: DJ-1 KO/mutant; 3 mM glucose, 10 mM GA, 10 mM DL
# Protocol: (§3) Briefly, brain mesencephalons from E14.5 C57JBL6 or DJ-1 embryos were dissected under the microscope and digested with Trypsin-EDTA (Sigma-Aldrich). The trypsin reaction was stopped by adding the basic medium (BM) containing Neurobasal A medium (Gibco), 1 mg/ml penicillin/streptomycin, 10% (v/v) fetal calf serum (Invitrogen) and 2 mM L-glutamine and cells were mechanically dissociated using a fire-polished Pasteur pipette. Medium was fully replaced by centrifuging for 5 min. at 1200 rpm, aspiring the supernatant and adding 8 ml of the fresh BM to the pellet. […] The same volume of medium containing the different treatment substances was added 4 hours after plating to obtain the following treatment concentrations: control, 3 mM glucose, 10 mM GA, 10 mMDL and 10 mM LL. 24 hours later ⅓ of the medium was replaced with fresh BM. On DIV3 (day-in-vitro-culture 3) half of the medium was replaced with B27 medium containing Neurobasal A medium, 1 mg/ml penicillin/streptomycin, 2 mM L-Glutamine (Sigma-Aldrich) and B-27 supplement (Life Technologies) and on DIV5 all medium was replaced by B27 medium.
# (§4) Dopaminergic TH^+ neurons were observed using an inverted fluorescence microscope (Axiovert 200M, Zeiss) under a 10× objective (PlanApo, NA=0.45). The diameter of every well was scanned in two perpendicular directions (i.e. top to bottom and left to right) and total TH^+ neurons were counted for every well.
# [4] = test system: primary mesencephalic dopaminergic neurons from wild type mouse embryos; experiment: In vitro survival of primary dopaminergic (TH+) neurons, wild type; format: cell-based; conditions: 3 mM glucose, 10 mM GA, 10 mM DL, 10 mM LL, TH+ cells relative to no supplement
# Protocol: as §3, §4
# [5] = test system: DJ-1 RNAi HeLa cells; format: cell-based, human; conditions: for rescue of the circular mitochondrial phenotype: paraquat-treated DJ-1 RNAi HeLa cells, supplements for 24 hours
# Protocol: as §1
# To film the osmotically challenged HeLa cells, a DeltaVision system (Applied Precision) was used, equipped with an Olympus IX-71 Inverted microscope and a 40× (UPIanApo, NA=1.00) objective. Time-lapse images were acquired at 1-min intervals except during osmotic shock treatment (equal volume of water for hypotonic shock; equal volume of the AFM medium containing 2.86% (w/v) xylose for hypertonic shock). Deconvolved and maximally projected images were analyzed manually on Image.J to annotate the radius and the volume of the round objects (i.e. mitotic cells), assuming that the cells were spherical (Stewart et al., 2011). To image mitochondria of HeLa cells, MitoTracker Red CMXRos was added at 150 nM and fixed with 3% (v/w) paraformaldehyde in PBS, 1 mM MgCl2, and 5 mM EGTA. Chromatin was counter-stained by 1 μg/ml Hoechst33342. They were imaged on the DeltaVision system using a 60× objective (PlanApo N, NA=1.42, Olympus), and deconvolved and maximally projected images were used for the analysis. Due to high background of MitoTracker in the center of the cell, mitochondria in a 15×15 um area in the periphery were manually annotated on Image.J software.
# [6] = test system: DJ-1 GLO1 double RNAi-treated cells; experiment: Mitotic rounding pressure of DJ-1 GLO1 double RNAi-treated cells (AFM); format: cell-based, human; conditions: both glyoxalases DJ-1 and GLO1 knocked down
# Protocol: as §1, with “HeLa Cells Were RNAi-transfected with 160 nM endoribonuclease-digested small interfering RNA (MISSION esiRNA, Sigma) using oligofectamine reagent (Invitrogen). Paraquat (PQ^2+) was added 24 hours after RNAI. Cells were assayed after 48 hours from RNAI.” left out
# Cell rounding pressure analysis with microcantilevers Cells were grown on a glass-base dish (FD35, World Precision Instruments) with a silicon spacer, which was prepared from μ-Chamber 12 well (ibidi), in the center. […] Otherwise the cell pressure and volume were measured in a constant-height assay, as illustrated in FIG. 5B: the cantilever was first set at 14 μm height and placed over a metaphase cell to record rounding force. […] The maximal cross-section area of the cell was measured from the DIC or mCherry-CAAX image to calculate cell pressure and volume. […]
# [7] = test system: primary dopaminergic neurons from wild-type E14.5 embryos treated with PQ2+; conditions: 12.5 μM PQ2+ for 72 hours, 10 mM supplement
# Protocol: Briefly, brain mesencephalons from E14.5 C57JBL6 or DJ-1 embryos were dissected under the microscope and digested with Trypsin-EDTA (Sigma-Aldrich). The trypsin reaction was stopped by adding the basic medium (BM) containing Neurobasal A medium (Gibco), 1 mg/ml penicillin/streptomycin, 10% (v/v) fetal calf serum (Invitrogen) and 2 mM L-glutamine and cells were mechanically dissociated using a fire-polished Pasteur pipette. Medium was fully replaced by centrifuging for 5 min. at 1200 rpm, aspiring the supernatant and adding 8 ml of the fresh BM to the pellet. […] The same volume of medium containing the different treatment substances was added 4 hours after plating to obtain the following treatment concentrations: control, 3 mM glucose, 10 mM GA, 10 mMDL and 10 mM LL. 24 hours later ⅓ of the medium was replaced with fresh BM. […]
# as §4
# [8] = test system: C. elegans ΔΔdjr double mutant and glod-4 single mutant larvae; format: in vivo
# Protocol: (Brenner, 1974). […] All mutants were outcrossed at least twice.
# Mitochondria staining was performed as previously described. Briefly, MitoTracker Deep Red or CMXROS (M22426, M7512, Life Technologies) were dissolved in DMSO at a concentration of 5 mM and kept at −20° C. as a stock solution. On the day of microscopy worms were incubated in a 1:1000 diluted MitoTracker for 45 min at room temperature. Worms were then paralyzed with 1 mM Levamizol (Sigma-Aldrich), placed on slides covered with a thin layer of NGM medium on top of which the coverslip (22×22 mm, Menzel-Glaser #1) was fixed using nail lack.
# Microscopy images from live paralyzed worm larvae stained with MitoTracker were taken using a confocal microscope (LSM510, Zeiss, Germany). Samples were excited using a 514 (MitoTracker CMXRos) or a 647 (MitoTracker Deep Red) nm lasers and two channels, one BP505-550 or LP650 and the BF channel were used to acquire the images. Gain was maintained between 450 and 515 for all samples to ensure the detection of signal intensity differences.
# [9] = test system: C. elegans larvae (ΔΔdjr, glod-4)
# Protocol: (A) The differential expression of djr-1.1, djr-1.2 and glod-4 was tested by RT-PCR in four replicates. […] (B) Length of the worms treated with PQ^2+. Bars and error bars show the mean and SD, respectively. […] Every strain was compared to its control at different PQ^2+ concentrations by two-way ANOVA followed by Tukey's honestly significant differences (HSD) test. (C) Worm larvae treated with PQ or control. Scale bar, 250 μm. (D) survival of the worm larvae treated with 200 μM paraquat and 1 mM of the Indicated supplements. Bars and error bars show the mean and SD, respectively. […] Every strain was compared to its own control by two-way ANOVA followed by Tukey's HSD test. Data were normalized by Freeman-Tukey's double arcsine transformation prior to ANOVA. *p<0.05; **p<0.01; ***p<0.001.
# All C. elegans strains were maintained on NGM agar plates seeded with Escherichia coli NA22 at 15° C. […] Mutant strains djr-1.1(tm918), djr-1.2(tm951) and glod4(tm1266) were obtained from National Bioresource Project, Japan. Wild type (N2) and daf-2 mutant strains were obtained from Caenorhabditis Genetics Center, USA. All mutants were outcrossed at least twice. DJ-1 double mutant djr-1.1(tm918), djr-1.2(tm951), abbreviated as ΔΔdjr, was achieved by crossing both single mutants. This strain was then further crossed to daf-2 to generate daf-2; ΔΔdjr triple mutant.
# [10] = estimated; cited from earlier work
# [11] = toxicology study; cited from earlier work
structure (smiles),measurement,setting,value
"NC(=O)c1ccc(N)nc1 [6-aminonicotinamide, reference compound]",effect on the glucose-mediated rescue of pressure in DJ-1 RNAi cells,"[1]; mitotic HeLa, measured after 1 hour",inhibited
"C[C@@H](O)C(=O)O [DL, D-(−)-lactic acid]",rescue of the reduced rounding pressure of mitotic DJ-1-deficient MEFs,[2],could rescue the reduced pressure
same,rescue of the lower pressure phenotype at 10 mM,[2],rescued the lower pressure phenotype
same,survival of dopaminergic neurons from DJ-1 knock out mice,[3],could stimulate neuronal survival; also recorded: stimulate the survival
same,rescue of the lower pressure phenotype in low or no glucose medium,[1],rescue of the lower pressure phenotype was observed
same,rescue of the reduced rounding pressure of mitotic DJ-1 RNAi cells,[1],could rescue the reduced pressure
same,rescue of the lower pressure phenotype at 10 mM,[1]; measured after 1 hour,rescued the lower pressure phenotype
same,in vitro survival of dopaminergic (TH+) neurons,[4],stimulated; also recorded: stimulate the survival
same,in vitro survival of dopaminergic (TH+) neurons,[4]; listed as D-lactate,support viability
same,rescue of the circular mitochondrial phenotype,[5],rescued
same,rescue of the circular mitochondrial phenotype,[5]; listed as D-lactate,rescue mitochondria structure
same,rescue of the pressure phenotype in DJ-1 and GLO1 double knock-down cells,[6],could rescue
same,rescue of the toxic effect of paraquat on dopaminergic neurons,[7],significantly rescue the toxic effect of paraquat
"O=C(O)CO [GA, 2-hydroxyethanoic acid]",reversal of circular mitochondria and diminished MitoTracker staining,[8]; paraquat-treated ΔΔdjr double mutant and glod-4 single mutant larvae,reversed
same,rescue of the reduced rounding pressure of mitotic DJ-1-deficient MEFs,[2],could rescue the reduced pressure
same,rescue of the lower pressure phenotype at 10 mM,[2],rescued the lower pressure phenotype
same,effect on pressure of mitotic WT MEFs (negative effects on cell mechanics),[2],decreases pressure
same,survival of dopaminergic neurons from DJ-1 knock out mice,[3],could stimulate neuronal survival; also recorded: stimulate the survival
same,rescue of the lower pressure phenotype in low or no glucose medium,[1],rescue of the lower pressure phenotype was observed
same,rescue of the reduced rounding pressure of mitotic DJ-1 RNAi cells,[1],could rescue the reduced pressure
same,rescue of the lower pressure phenotype at 10 mM,[1]; measured after 1 hour,rescued the lower pressure phenotype
same,in vitro survival of dopaminergic (TH+) neurons,[4],stimulated; also recorded: stimulate the survival
same,in vitro survival of dopaminergic (TH+) neurons,[4]; listed as Glycolate,support viability
same,rescue of the circular mitochondrial phenotype,[5],rescued
same,rescue of the circular mitochondrial phenotype,[5]; listed as glycolate,rescue mitochondria structure
same,rescue of the pressure phenotype in DJ-1 and GLO1 double knock-down cells,[6],could rescue
same,restoration of viability of ΔΔdjr mutant larvae,[9]; in vivo,restored
"C[C@H](O)C(=O)O [LL, L-(+)-lactic acid, reference compound]",rescue of the reduced rounding pressure of mitotic DJ-1-deficient MEFs,[2],had no effect
same,rescue of the lower pressure phenotype at 10 mM,[2],"but not LL, rescued the lower pressure phenotype"
same,effect on pressure of mitotic WT MEFs (negative effects on cell mechanics),[2],decreases pressure
same,rescue of the reduced rounding pressure of mitotic DJ-1 RNAi cells,[1],had no effect
OCCOCCO [diethylene glycol],minimum toxic dose,[10],0.14 mg glycolic acid per kg of body weight
"NC(=O)CC[C@H](N)C(=O)O [glutamine, reference compound]",rescue of the reduced rounding pressure of mitotic DJ-1 RNAi cells,[1],"neither pyruvate, which is produced from glucose, nor glutamine, which can enter the Krebs cycle, rescued the DJ-1 pressure phenotype"
"CC(O)C(=O)O (stereo not shown) [lactic acid, 2-hydroxypropanoic acid]",amount declared as harmless,[11],about 8 g/day
"C[n+]1ccc(-c2cc[n+](C)cc2)cc1 [paraquat, reference compound]",effect of paraquat on mitochondria of worm larvae,[8]; reproductive larvae of C. elegans,disrupted mitochondria
same,effect of paraquat on mitochondrial structure,"[5]; low doses of paraquat, DJ-1 RNAi HeLa cells",disrupted mitochondrial structure
same,effect of paraquat on viability of glod-4 mutant larvae,"[9]; glod-4, 200 μM paraquat",not affected
same,effect of paraquat on viability of ΔΔdjr mutant larvae,"[9]; ΔΔdjr, 200 μM paraquat",decreased viability
"CC(=O)C(=O)O [pyruvate, 2-oxopropanoic acid salt, reference compound]",rescue of the reduced rounding pressure of mitotic DJ-1 RNAi cells,[1],"neither pyruvate, which is produced from glucose, nor glutamine, which can enter the Krebs cycle, rescued the DJ-1 pressure phenotype"
same,rescue of the circular mitochondrial phenotype,[5],cannot rescue the circular phenotype
